In a melting point compilation (Tetko et al.; mined from patent text by program, amines drawn as free bases though some values may be those of a salt):

First: COc1cc(OC)nc(Nc2ccc(C)cc2[N+](=O)[O-])n1
Second: CNc1cc(Cl)c(OC)c([N+](=O)[O-])c1OC
The melting point of the first is higher: 158 to 161 °C for the first, 57 °C for the second.

First: CC(C)[C@H]1NC(=O)[C@H]1N (relative stereo)
Second: CC1Cc2cccc(S(N)(=O)=O)c2N1 (stereo not drawn)
The melting point of the first is lower: 91 to 93 °C for the first, 110 to 112 °C for the second.

First: CCOC(Cc1ccc(NC/C=C/c2ccc(OS(C)(=O)=O)cc2)cc1)C(=O)O (stereo not drawn)
Second: CCOC(=O)C(Cc1ccc(Cl)cc1)NC(=S)Nc1ccc(C(C)C)cc1 (stereo not drawn)
The melting point of the first is higher: 146 to 148 °C for the first, 73 to 75 °C for the second.

First: O=C1C=C(NNc2ccccc2)CCN1
Second: CCOC(=O)CC(Nc1ccccc1)c1ccccc1 (racemic)
The melting point of the first is higher: 165 to 168 °C for the first, 87 °C for the second.

First: O=[N+]([O-])c1cc(F)ccc1NC1CCN(Cc2ccccc2)CC1
Second: COc1cc2oc(=O)c3c(c2cc1OC)CCN(Cc1ccccc1)C3
The melting point of the first is lower: 86 to 87 °C for the first, 189 to 191 °C for the second.

Compared with `CC1=CC(O)C(OC(=O)c2ccc(N)cc2)C(C)(C)CC1=O` (stereo not drawn), `COc1c(-c2cc3c(s2)CCC(C)(C)C3O)ccc2c(=O)c(C(=O)O)cn(C3CC3)c12` (stereo not drawn) is lower in melting point: 170 to 171 °C for the first, 93 to 94 °C for the second.

First: N#CC1C2OCC(O2)C(OCc2ccccc2)C1O (stereo not drawn)
Second: N[C@]1(C(=O)O)[C@H]2[C@@H](C[C@H]1OCc1ccccc1)[C@@H]2C(=O)O
The melting point of the first is lower: 152 to 156 °C for the first, over 250 °C for the second.

First: CCCOc1cc(C(=O)O)cc(S(N)(=O)=O)c1-c1ccccc1
Second: CCc1c(C(=O)C(N)=O)c2cc(OCCCC(=O)O)ccc2n1Cc1ccccc1
The melting point of the first is lower: 155 to 157 °C for the first, 173 to 175 °C for the second.

First: CC(C)(C)OC(=O)NCc1ccsc1CC(=O)O
Second: Cc1ccc(C(=O)NCCNC(=O)OC(C)(C)C)s1
The melting point of the first is lower: 62 to 63 °C for the first, 109 to 110 °C for the second.

Compared with `COc1ccc(NS(=O)(=O)c2ccc(N)cc2OC)cc1`, `COc1ccc(OCCOS(N)(=O)=O)cc1` is higher in melting point: 51 to 54 °C for the first, 84 to 87 °C for the second.

First: O=C(NC(c1ccccc1)c1cc2ccncc2[nH]1)c1ccccn1 (stereo not drawn)
Second: Cc1cccc(Nc2nc(-c3ccc(-c4ccccc4)cc3)cs2)n1
The melting point of the first is lower: 102 to 110 °C for the first, 218 to 222 °C for the second.

First: COc1nc(C)nc2c1-c1ccc(Cl)cc1C(c1ccccc1)=NC2
Second: Cn1c(=O)c(-c2c(Cl)cccc2Cl)cc2cnc(NCc3ccccc3)nc21
The melting point of the first is lower: 185 to 187 °C for the first, 217 to 219 °C for the second.

Compared with `CCCC=Cc1c(C(C)C)nc(C(C)C)c(C(=O)OCC)c1-c1ccc(-c2ccccc2)cc1`, `Cc1ccc(-c2c(N(C)C(=O)OC(C)(C)C)n(CC(C)C)c(=O)c3ccc(OCc4ccccc4)cc23)cc1` is higher in melting point: 104 to 106 °C for the first, 164 °C for the second.

Compared with `FC(F)(F)c1cccc(-c2cc(C(F)(F)F)n3ncc(I)c3n2)c1`, `Cn1cc(C(=O)C(Cl)Cl)c(=O)c(-c2cccc(C(F)(F)F)c2)c1` is higher in melting point: 142 °C for the first, 184 to 186 °C for the second.

Compared with `CCCCCCCCCCCCc1ccccc1C(SCCCC(=O)O)C(=O)O` (stereo not drawn), `N=C(N)NCCCC(NC(=O)C(CS)Cc1ccccc1)C(=O)O` (stereo not drawn) is higher in melting point: 58 to 59 °C for the first, 135 °C for the second.

First: CNC(=S)Nc1cc(C(=O)OC)c(O)c2ncc(Cc3ccc(F)cc3)cc12
Second: CCCCc1nc2ccccc2n1Cc1ccc(-c2ccccc2C(=O)OC)cc1
The melting point of the first is higher: 189 to 191 °C for the first, 132 to 134 °C for the second.

Compared with `COc1ccc(-c2nnn(-c3c(Cl)cc(Cl)cc3I)c2N)cc1`, `COc1ccc(-c2nc(CCOc3ccc(CN(O)C(N)=O)cc3)c(C)o2)cc1` is higher in melting point: 72.5 to 73.6 °C for the first, 100 to 101 °C for the second.

Compared with `CCCC[C@H](NC(=O)[C@H](CC(C)C)NC(=O)c1c(F)ccc(F)c1F)C(=O)CSCc1ccco1`, `C[C@@H](NC(=O)c1nc(-c2ccc(Cl)cc2)no1)[C@](O)(Cn1cncn1)c1ccc(F)cc1F` is higher in melting point: 116 to 117 °C for the first, 170 to 172 °C for the second.

First: Cc1cc(C)nc(-c2ccc(CN3CCN(c4ccc(O)cc4)CC3)cc2)n1
Second: O=C1c2ccccc2C(O)N1CCCN1CCN(c2ccc(Cl)cc2)CC1 (stereo not drawn)
The melting point of the first is lower: 165 to 167 °C for the first, 173 °C for the second.

Compared with `Cc1c(CCc2ccccc2)c(=O)oc2cc(O)cc(O)c12`, `CCOC(=O)c1c(Cl)c2cc(C)ccc2n(Cc2ccccc2)c1=O` is lower in melting point: 248 to 252 °C for the first, 103 °C for the second.

Compared with `O=C(CC(=S)S)c1ccc(Oc2ccccc2)cc1`, `O=C(NC(Cc1ccccc1)C(=O)C(F)(F)F)c1ccccc1` (racemic) is higher in melting point: 78 °C for the first, 148 to 157 °C for the second.

Compared with `CCCc1nc(C(=O)C(C)C)c(C#N)[nH]1`, `CC(=O)c1c(C)[nH]c(C(C)CC(C)C)c1C` (stereo not drawn) is higher in melting point: 90.5 to 91 °C for the first, 140 to 142 °C for the second.

First: CN(C)C(=O)N1CCc2ccc(S(=O)(=O)NC(=O)NC3CCCC3)cc2CC1
Second: COc1cc2c(cc1Nc1ncc(Cl)c(N[C@@H]3CCCC[C@H]3NS(C)(=O)=O)n1)CCN(CC(=O)N(C)C)CC2
The melting point of the first is higher: 179 to 180 °C for the first, 92 to 97 °C for the second.

Compared with `COc1ccc(N2CCN(c3c(C)c(C)c4c(c3C)C(O)(C(C)(C)C)C(C)(C)O4)CC2)cc1` (stereo not drawn), `COc1ccc(C(=O)c2c(C)cc(NC(C)(C)C)nc2NC(C)(C)C)cc1` is higher in melting point: 113 to 115 °C for the first, 127 to 129 °C for the second.

First: Cn1cc(Br)nc(Nc2cnn(CCO[Si](C)(C)C(C)(C)C)c2)c1=O
Second: COc1ccccc1N1CCN(CCn2cnc3sc(C(=O)N(C)C)c(C)c3c2=O)CC1
The melting point of the first is lower: 172 to 173 °C for the first, 188 to 190 °C for the second.

First: Cc1nc(N)c(C#N)cc1-c1ccccc1
Second: Oc1cc2onc(-c3ccccc3F)c2cc1Cl
The melting point of the first is higher: 182 to 189 °C for the first, 180 to 182 °C for the second.

Compared with `Cc1cc2c(cc1O)OCCC2=O`, `CC(=O)Nc1ccc2c(c1)-n1cc(C(=O)O)nc1CO2` is higher in melting point: 185 to 186 °C for the first, 295 to 296 °C for the second.

First: CCn1c(=O)c2[nH]c(/C=C/c3cccc(OC)c3[N+](=O)[O-])nc2n(CC)c1=O
Second: CCCCc1c(/C=C/C(=O)Oc2ccc([N+](=O)[O-])cc2)cc(OC)c2ccccc12
The melting point of the first is higher: over 285 °C for the first, 122 °C for the second.

First: CC(C)(CS(=O)(=O)c1ccc(Cl)cc1)C(=O)C(Oc1ccc(Cl)cc1)n1cncn1 (stereo not drawn)
Second: CC(C)Oc1ccc(-n2c(C(=O)O)c(Cl)c3cc(Oc4ccc(C(F)(F)F)cc4)ccc32)cc1
The melting point of the first is lower: 55 to 60 °C for the first, 148 to 150 °C for the second.

First: CCS(=O)(=O)Nc1cc(Cc2c[nH]cn2)ccc1C
Second: CNc1ccccc1C(=O)NCCCn1cncn1
The melting point of the first is higher: 140 to 152 °C for the first, 131 to 133 °C for the second.

First: O=C(Nc1ccc(C2CC(F)(F)C2(F)F)cc1)Nc1nonc1-c1ccccc1 (stereo not drawn)
Second: O=C(Nc1nc(C(F)(F)F)co1)C1c2ccccc2Oc2c(F)cccc21 (racemic)
The melting point of the first is lower: 206 °C for the first, 233 °C for the second.

First: CN(C)C(=O)c1cncc([N+](=O)[O-])c1
Second: CN(Cc1ccncc1)c1ccc([N+](=O)[O-])c2c(C#N)cccc12
The melting point of the first is lower: 65 °C for the first, 153 to 156 °C for the second.

First: Oc1cc2[nH]c3c(O)c(O)ccc3c2cc1O
Second: O=c1c2ccc(O)cc2oc2c([N+](=O)[O-])ccc(Cl)c12
The melting point of the first is higher: over 280 °C for the first, 179 to 182 °C for the second.

Compared with `CCCCNc1nc(C)cc(Cl)n1`, `CCOc1ccc(N)nc1C` is higher in melting point: 35 to 36 °C for the first, 93 to 96 °C for the second.

Compared with `N#Cc1ccc(-c2cn(-c3ccc(Br)cc3)c(SCc3cccnc3)n2)cc1`, `Cc1cc(-n2cc(-c3ccc(F)cc3)nc2C)cc2ccc(=O)[nH]c12` is higher in melting point: 177 to 178 °C for the first, 289 to 291 °C for the second.

First: N#CCCNC(=S)C1=CC(CF)(CF)Oc2cc(Cl)c(Cl)cc21
Second: Cc1nn(-c2c(Cl)cc(C(F)(F)F)cc2Cl)nc1Cl
The melting point of the first is higher: 154 to 155 °C for the first, 100 to 115 °C for the second.

First: O=c1cc(-c2ccoc2)c2ccc(Sc3cccc(-c4ccccc4)n3)cc2o1
Second: Cc1cc(-c2ccc(-c3c(Cc4ccccc4)oc4ccccc34)cc2)cc(C)c1OS(=O)(=O)c1ccc(C(=O)O)c(O)c1
The melting point of the first is higher: 175 to 178 °C for the first, 165 to 167 °C for the second.

First: O=P(O)(CCc1ccccc1)CCc1ccccc1
Second: O=C(Nc1ccc(C2=CN(C(=O)OCc3ccccc3)CCC2)c(F)c1)OCc1ccccc1
The melting point of the first is lower: 84 to 87 °C for the first, 138 to 139 °C for the second.

First: CC(C)(C1CCCCC1)C(NC(=O)c1ccc(Cl)cc1)Nc1c(Nc2cccnc2)c(=O)c1=O (stereo not drawn)
Second: CC(C)(C)OC(=O)N(CCO)C1CCN(c2ccc3c(NC(=O)CC4CCCCC4)c(Cl)ccc3n2)C1 (stereo not drawn)
The melting point of the first is higher: 275 to 276 °C for the first, 115 to 120 °C for the second.

First: O=S(=O)(c1ccccc1)n1cc(CCOC2OC(CO)CC(O)C2O)c2ccccc21 (stereo not drawn)
Second: COc1ccc(C=C2c3ccccc3C(=NOCC(=O)N3CCC(CO[N+](=O)[O-])CC3)c3ccccc32)cc1O
The melting point of the first is lower: 64 to 65 °C for the first, 143 to 145 °C for the second.

Compared with `CC(C)(C)OC(=O)NC(Cc1ccc(-c2cccc(CNCC(=O)c3ccccc3)c2)cc1)C(=O)O` (stereo not drawn), `COc1ccc(CNC(N)=S)cc1OCc1ccccc1` is higher in melting point: 80 °C for the first, 179 to 181 °C for the second.

First: CC1CCCC(C)N1c1cc(F)cc(C(=O)Nc2ccc(OCCN3CCOCC3)c3ccccc23)c1 (stereo not drawn)
Second: CCOP(=O)(/C=C/c1cn(-c2ccccc2)nc1OCc1ccc(OCc2csc(N3CCOCC3)n2)c(OC)c1)OCC
The melting point of the first is higher: 105 to 107 °C for the first, 93 to 94 °C for the second.

Compared with `Oc1cc(Cl)ccc1Br`, `NC(=O)COC(=O)c1c(Cl)cccc1Cl` is higher in melting point: 56 °C for the first, 114 to 116 °C for the second.

Compared with `CCNC(=O)c1ccc(N2CCN(Cc3cc(C)c4c(c3)NC(=O)C(C)O4)CC2)c(C)c1` (stereo not drawn), `CCCOc1c(OC)cc(Cl)c2c1CN1CCc3cc(OC)c(OCc4ccccc4)cc3C1C2` (stereo not drawn) is lower in melting point: 223 to 230 °C for the first, 118 to 120 °C for the second.

First: CCOc1cc2c(=O)cc(C(=O)O)n(CC)c2ccc1=O
Second: CCCC1=C(C(=O)OCC)C(c2ccccc2C)c2c[nH]nc2N1 (stereo not drawn)
The melting point of the first is higher: 227 to 228 °C for the first, 178 °C for the second.

First: COc1ccc(SSc2ccc(OC)cc2C(=O)Nc2ccc(S(N)(=O)=O)cc2)c(C(=O)Nc2ccc(S(N)(=O)=O)cc2)c1
Second: Nc1ccc(C(=O)N2Cc3cccn3Cc3ccccc32)c(Cl)c1
The melting point of the first is higher: 242 to 243 °C for the first, 210 to 212 °C for the second.

First: CCOC(=O)C=Cc1ccc2c(c1)ncn2-c1cccc(N2CCCCC2)c1
Second: CCN(C=O)c1nc2ccc(CCc3ccco3)cc2o1
The melting point of the first is higher: 85 to 87 °C for the first, 54 to 58 °C for the second.

First: CC1(C)CC(C)(C)CC(CCC(=O)O)(NC(=O)CCl)C1
Second: CCCc1nc2c(N)nc3ccccc3c2n1CCCCN(OC)C(N)=O
The melting point of the first is lower: 130 to 131 °C for the first, 179 to 181 °C for the second.

First: CN(CCCCCCCC(F)(F)C(F)(F)F)CCCCCC1Cc2cc(O)ccc2C2C(F)CC3(C)C(O)CCC3C12 (stereo not drawn)
Second: FC(F)(F)c1ccc(Cl)nn1
The melting point of the first is lower: 11 °C for the first, 51 to 52 °C for the second.
